This test deals with Plasmodium falciparum. Kind of test: GSK_TCMDC: Inhibition of Plasmodium falciparum 3D7 in whole erythrocytes, using parasite LDH activity as an index of growth. The settings on record: Plasmodium falciparum, 3D7. In kind it is functional, organism-based.
Compound `CCc1cc(Cc2cnc(N)nc2N)cc(CC)c1OC` yielded an XC50 of 1.13 µM. `OC(CNCc1ccccc1OCc1ccccc1)c1cccc(C(F)(F)F)c1` (stereo not given) came in with an XC50 of 0.364 µM. To `COc1ccc(CCN(C)CCc2ccc(NC(=O)c3cccc4c(=O)c5ccccc5sc34)cc2)cc1` belongs 0.859 µM. `CCOC(=O)C1=C(C)N=c2sc(=Cc3ccccc3O)c(=O)n2C1c1ccc(OC)c2ccccc12` (stereo not given) came in with an XC50 of 1.26 µM.

Compound `C[C@H](Cc1ccc(C[C@@H](C)NCC(O)c2cc(Cl)c(N)c(Cl)c2)cc1)NCC(O)c1cc(Cl)c(N)c(Cl)c1` (stereo not given in full) registered an XC50 of 0.893 µM. To `COc1ccc(N(c2nc(-c3cc(Cl)ccc3Cl)cs2)C2CCNC2)cc1` (stereo not given) belongs 0.873 µM; to `CS(=O)(=O)NCCCNCc1ccc(-c2cccc(-c3nc4cc(C(F)(F)F)ccc4[nH]3)c2)cc1`, 0.854 µM. Compound `COc1ccc(-c2cccc(NC(=O)c3cccc(C#N)c3)c2)cc1CN(C)CCN(C)C` registered an XC50 of 0.314 µM. `COc1ccc2nccc([C@@H](O)CN3CCC(NC(=O)/C=C/c4ccc5cc(C)[nH]c5c4)CC3)c2c1` had an XC50 of 0.728 µM. To `COc1ccc(C(C(=O)NC2CCN(C[C@H](O)c3ccnc4ccc(OC)cc34)CC2)N2CCN(c3ccc([N+](=O)[O-])cc3)CC2)cc1` (stereo not given in full) belongs 0.232 µM. `CC(C)CNCc1ccc(-c2cccc(CN(C(=O)CCC3CCCC3)C3CCN(Cc4ccccc4)CC3)c2)cc1` came in with an XC50 of 0.799 µM.

With `O=[N+]([O-])c1cc2c(cc1C=NNc1nc(=Nc3ccccc3)[nH]c(=Nc3ccccc3)[nH]1)OCO2`, the XC50 was determined as 0.866 µM. On to `N=C(N)Nc1ccc(OCCCCCOc2ccc(NC(=N)N)cc2Br)c(Br)c1`, for which the XC50 was found to be 0.262 µM.

`COc1cc(NC(=O)/C=C/c2cc(F)cc(F)c2F)cc(OCCN2CCCCC2)c1` came in with an XC50 of 0.153 µM. Regarding `Cc1cccc2nc(-c3cccc(-c4cccc(CN5CCN(c6ccc(C#N)cn6)CC5)c4)c3)[nH]c12`, the XC50 turned out to be 1.16 µM. The compound `O=C(NC1CCC(CN2CCC(c3c[nH]c4ccccc34)CC2)CC1)c1cc2ccccc2o1` (stereo not given) returned an XC50 of 0.971 µM. As for `CC(C)CNCc1cccc(-c2cccc(CN(CCCN3CCN(C)CC3)C(=O)/C=C/c3ccccc3)c2)c1`, the XC50 was 0.926 µM. As for `COc1cc(OC)c(NC(=O)C2c3ccccc3C(=O)N(CC(C)C)C2c2cccs2)cc1Cl` (stereo not given), the XC50 is 0.0464 µM. To `CCOc1ccc2[nH]c(C)cc(=NN=Cc3ccc(Cl)cc3)c2c1` belongs 0.763 µM; to `N[C@@H](Cc1cc(I)c(Oc2ccc(O)c(Cl)c2)c(I)c1)C(=O)O`, 0.993 µM. To `O=C(/C=C/c1ccc(Cl)c(Cl)c1)NCCCCCN1CCC(NC(=O)c2cccc(Cl)c2)CC1` belongs 0.687 µM; to `Cc1ccccc1OCCCN1CCN(CC(c2ccc(F)cc2)N2CCN(C(C)C)CC2)CC1` (stereo not given), 1.41 µM. To `COc1ccc(S(=O)(=O)N2CCOCC2)cc1NC(=O)c1cc2ccccc2o1` belongs 0.795 µM; to `COCCN(CCOC)c1ncc(-c2ccsc2)c(-c2nc(C)c(C)s2)n1`, 0.843 µM; to `COc1cccc(C(=O)NCc2cccs2)c1OCc1ccccc1`, 0.921 µM.

For `Nc1nccc(-c2ccc3c(-c4cccc(F)c4)cnc(N)c3c2)n1`, the XC50 turned out to be 1.02 µM. To `CC(C)CNCc1ccc(-c2ccc(CN(C(=O)NC3CCCCC3)C3CCN(Cc4ccccc4)CC3)cc2)cc1` belongs 0.785 µM. To `O=C(C=Cc1ccc(Cl)c(Cl)c1)NCCCCCN1CCC(CCNC(=O)c2sc3ccccc3c2Cl)CC1` belongs 1.01 µM; to `COc1ccc(CC(=O)Nc2ccc(Nc3nc(C)cc(N(C)C)n3)cc2)cc1`, 0.79 µM; to `CC(=O)N1CCN(c2ccc(NC(=O)c3oc(-c4ccccc4)nc3C(F)(F)F)cn2)CC1`, 0.84 µM.

For the compound `Cc1ccc(NC(=O)c2ccc(N3CCN(c4ccncc4)CC3)cc2)cc1F`, the XC50 is 0.736 µM. To `c1cc(CNC2CCCC2)cc(-c2ccc(CNc3ccc4ncccc4c3)cc2)c1` belongs 0.773 µM. The compound `N#Cc1cccc(C(=O)Nc2ccc(-c3cccc(CN4CCC(O)CC4)c3)cc2)c1` yielded an XC50 of 0.995 µM.

In turn, `O=C(CCc1ccccc1)N[C@H](Cc1c[nH]c2ccccc12)C(=O)N1CCC(NCc2ccc3c(c2)Cc2ccccc2-3)CC1` returned an XC50 of 0.91 µM. To `CC[C@H](C)CNCc1ccc(OCc2cccc(COc3ccc(CNC[C@@H](C)CC)cc3I)c2)c(I)c1` belongs 0.396 µM; to `CS(=O)(=O)c1ccc(CCNCc2ccc(-c3ccc(CN(C(=O)c4cccc(C#N)c4)C4CCN(Cc5ccccc5)CC4)cc3)nc2)cc1`, 0.977 µM; to `CCOC(=O)NC1=NC(C)(C)N(OCCCOc2cc(Cl)c(Cl)cc2Cl)C(NC(=O)OCC)=N1`, 0.0312 µM.

As for `Cc1c(-c2cccc(NC(=O)C(C)(C)Oc3ccc(Cl)cc3)c2)nc2ncccn12`, the XC50 was found to be 0.17 µM. To `CCNc1cc(C)nc(Nc2ccc(NC(=O)C3CCCC3)cc2)n1` belongs 1.12 µM. In turn, `Cc1ccc(F)c(C(=O)Nc2cccc(-c3nn4ccccc4c3-c3ccnc(Nc4cccc(F)c4)n3)c2)c1F` came in with an XC50 of 1.05 µM.

`COc1ccc(-c2ccc(NC(=O)c3ccc(Cl)cc3)cc2)cc1CN1CCC(O)CC1` showed an XC50 of 1.09 µM. To `O=C(NCc1cccs1)[C@H](Cc1ccccc1)Nc1ccnc(NCCc2ccccc2)n1` belongs 1.05 µM. To `N[C@@H](COc1cccc2c(-c3ccncc3)c(-c3cccc(NC(=O)Nc4ccccc4)c3)nn12)c1ccccc1` belongs 0.408 µM; to `Cc1ccc(C(NC(=O)Cc2ccccc2)c2ccc3cccnc3c2O)cc1` (stereo not given), 0.623 µM; to `Nc1ncc(-c2ccc3nccc(-c4ccncc4)c3c2)cc1S(=O)(=O)N1CCCCC1`, 0.581 µM.

The compound `Cc1c(C(=O)Nc2cc(Sc3ccc(F)cc3)cc([N+](=O)[O-])c2)sc2ncn(Cc3cccc(F)c3)c(=O)c12` came in with an XC50 of 0.72 µM.

`COc1ccc2nccc([C@@H](O)CN3CCC(NC(=O)c4ccc(-c5ccc(C#N)cc5)cc4)CC3)c2c1`: the XC50 was 0.164 µM. To `O=C(NCc1ccc(F)cc1)c1ccc(N2CCN(c3ccncc3)CC2)cn1` belongs 0.886 µM; to `O=C(NCc1ccccc1)c1nn(CCCN2CCC3(CC2)C(=O)NCN3c2ccccc2)cc1-c1ccc(Cl)c(Cl)c1`, 1.05 µM; to `Cc1ccc(NC(=O)NC2CCN(c3ccnc4ccccc34)CC2)cc1`, 0.79 µM. To `CN1CCCN(Cc2ccc(-c3ccc(NC(=O)c4cccc(C#N)c4)cc3)cc2)CC1` belongs 0.875 µM. To `C=C(C)C1CC=C(CN2CCC(N3CCc4cc(NC(=O)c5cc(C)on5)ccc43)C2)CC1` (stereo not given) belongs 0.707 µM. Take `CN1CCN(c2ccnc3ccc(NC(=O)Nc4cccc5c(Br)cccc45)cc23)CC1`: the XC50 was 0.153 µM. To `Cc1cccc(CNc2nc(C)cc(N[C@@H](Cc3ccccc3)C(=O)NCCc3ccccc3)n2)c1` belongs 0.673 µM. To `COc1cccc(-c2cnc(N)c(-c3nc4cc(Cl)c(F)cc4[nH]3)c2)c1` belongs 0.536 µM. On to `CCc1ccc(NC(=O)C=NNC(=N)N)cc1`, for which the XC50 came to 0.902 µM. To `Cc1cccc2nc(-c3ccc(-c4ccc(CN5CCC(C(N)=O)CC5)cc4)cc3)[nH]c12` belongs 0.932 µM; to `COc1cc(C2CCN(CCCCNC(=O)c3ccc(NC(=O)c4ccc(Cl)c(Cl)c4)cc3)CC2)ccc1OC(C)C`, 0.316 µM. To `Cc1cnc(Nc2cccnc2)nc1Nc1ccccc1C(=O)NC(C)C` belongs 1.2 µM; to `Cc1noc(-c2cccs2)c1C(=O)NC(C)c1cccc2ccccc12` (stereo not given), 0.129 µM. To `Cc1cccc2c3c([nH]c12)C1(CCN(Cc2ccccc2)CC1)NC(C(=O)NCc1ccccc1)C3` (stereo not given) belongs 1.37 µM. With `O=C(CCNc1ccnc(NCCc2ccccc2)n1)Nc1ccccc1`, the XC50 turned out to be 0.836 µM. To `C=CCOC1OC(COC(c2ccccc2)(c2ccccc2)c2ccccc2)C(OC(C)=O)C(OC(C)=O)C1NC(C)=O` (stereo not given) belongs 0.657 µM. To `CCCCC(CCCC)CN1C(=O)C(c2ccccc2)(c2ccccc2)N=C1N` belongs 0.182 µM.

In turn, `O=C(NCCCCN1CCC(c2ccc([N+](=O)[O-])cc2)CC1)c1ccc(NC(=O)c2ccc(Cl)cc2)cc1` showed an XC50 of 0.757 µM. To `Cc1cc2nc(-c3ccc(/C=C/C(=O)NCCCc4ccccc4)cc3)[nH]c2cc1C` belongs 0.955 µM; to `CCNC[C@@H](O)[C@H](Cc1ccccc1)NC(=O)c1cc2c3c(c1)c(CC)cn3CCS(=O)(=O)N2C`, 0.81 µM; to `CC(=O)CSC(C=Cc1ccc(N(C)C)cc1)=Nc1ccccc1`, 1.12 µM. For `COc1ccc(-c2ccccc2OCCCNc2nc(NCCc3ccc(O)cc3)nc(N3CCNCC3)n2)cc1`, the XC50 amounted to 0.785 µM. To `c1ccc(Oc2ccc(Nc3ccnc4cc(-c5ccc(CN6CCNCC6)o5)ccc34)cc2)nc1` belongs 0.243 µM; to `COc1cc(Cc2cnc(N)nc2N)cc(OCCCCC2SC(=O)NC2=O)c1Br` (stereo not given), 0.123 µM.

Turning to `Cc1cccc(C(=O)N2CCN(Cc3cccc(NC(=O)c4cccs4)c3)CC2)c1`, the XC50 stood at 0.221 µM. To `CCOC(=O)c1nc(-c2ccc(-c3ccccc3)cc2)[nH]c1N` belongs 0.422 µM. To `Cc1cc(-c2ccc(NC(=O)N3CCc4cc(Br)c(N5CCN(C)CC5)cc43)cc2)cc(C)n1` belongs 1.01 µM. To `Cc1nc2sccn2c1C(=O)NCCc1ccccc1Cl` belongs 0.8 µM; to `CCn1c2ccccc2c2cc(C=NN=c3cc(C)[nH]c4ccccc34)ccc21`, 0.309 µM; to `O=C(Nc1ccc(-c2nc3ccccc3[nH]2)cc1)c1cccc(S(=O)(=O)N2CCCC2)c1`, 0.743 µM.

For `Oc1ccc(Cl)cc1CN1CCCC(COC(c2ccc(F)cc2)c2ccc(F)cc2)C1` (stereo not given), the XC50 is 0.677 µM. On to `Cc1cc(CNC(=O)c2ccc(-c3ccc(-c4nc5cc(C(F)(F)F)ccc5[nH]4)s3)cc2)on1`, for which the XC50 came out at 0.732 µM. To `Cc1ccc(C)c(NC(=O)CC2C(=O)N(c3ccccc3)C(=S)N2Cc2ccco2)c1` (stereo not given) belongs 0.57 µM. The compound `COc1ccc(-c2cccc(NC(=O)c3ccc(F)cc3)c2)cc1CN1CCCN(C)CC1` had an XC50 of 0.833 µM. To `CCn1c(SCC(=O)Nc2cc(C(F)(F)F)ccc2Cl)nc2ccccc2c1=O` belongs 0.397 µM; to `CC1CCCCN1S(=O)(=O)c1ccc(NC(=O)c2cc(-c3ccccc3O)n[nH]2)cc1` (stereo not given), 0.756 µM; to `CC(CC(=O)NCC1(c2ccc(F)cc2Cl)CCOCC1)C(=O)c1ccc(Cl)cc1` (stereo not given), 0.856 µM. The compound `CCN1C(=O)C(=NN=C(S)N2CCCC2)c2ccccc21` returned an XC50 of 1 µM.

For the origin of these results see ChEMBL document CHEMBL1157539, “Thousands of chemical starting points for antimalarial lead identification” (Nature, 2010).
